One data set deals with HepG2 cells. The experiment in a line: Cytotoxicity, MTT assay, HepG2. Format: cell-based. The conditions noted are these: Homo sapiens, HepG2; MTT, cytotoxicity; read-out: HepG2 IC50. In outline:
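Cells treated with 5–200 µM compound (DMSO vehicle, four replicates) after overnight attachment. Viability read by MTT reduction (2 h, 37 °C, dark; formazan in DMSO, A570) relative to vehicle controls; IC50 from dose–response regression.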
A general note: Tetrazolium dyes change colour on reduction, which living cells bring about.

For data set [1], the system named is Caspase-3 activity in SH-SY5Y cells. The experiment in a line: Caspase-3 activity. It counts as cell-based, human. The conditions noted are these: H2O2 500 µM 4 h; compound 24 h before. The protocol:
Caspase-3 activity was measured using the Abcam fluorimetric kit (ab39383) according to the manufacturer’s instructions. Cells are washed with ice-cold PBS and lysed with lysis buffer. After compound and stressor treatments, SH-SY5Y cells were scraped off from p6 plates and collected in a 1.5 mL Eppendorf vial. The cell suspension was then centrifuged at 9000× g for 10 min at 4 °C. The supernatant was collected and stored at −80 °C for 24 h. Caspase 3 activity was measured as the ability of the cell extract to cleave the […] fluorochrome. The sample’s protein concentration was determined by the Bradford method. The reaction assay was performed by the addition of 50 μL of the cell lysate into the wells of a black 96-well culture plate followed by the addition of 50 μL of 2× reaction buffer containing DTT (10 mM) and caspase-3 substrate DEVD-AFC (final concentration 50 μM). Reagents were mixed by shaking the plate for 2 min at 300 rpm and then incubated at 37 °C for 2 h. Caspase-3 activity was measured as fluorescence intensity in a Varioskan microplate reader at λex = 400 nm and λem = 505 nm wavelengths. Relative fluorescence units (RFU)/mg of protein were calculated, and the fold increase in Caspase-3 activity was compared with that of the control.

A short description of data set [2]: Kinetic solubility by UV spectrometry. Format: physicochemical. To be noted: PBS 50 mM, aqueous buffer, kinetic from dmso stock. In outline:
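Compound from 20 mM DMSO stock was added to 10 mM PBS, shaken 2 h and filtered. The filtrate's UV absorbance (270–600 nm) was quantified against a 10–200 µM calibration curve in 50 mM PBS with 2% DMSO. Run in triplicate.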

Results on 1 compound are retold here after paper PMC8533176, “1,5-Benzodiazepin-2(3H)-ones: In Vitro Evaluation as Antiparkinsonian Agents” (Antioxidants, 2021).

A word on the IC50: it is the concentration that inhibits the measured activity by half. As usually defined, the solubility is how much of the substance goes into solution per volume. A higher solubility goes with a readily soluble substance.

Where only a bound is given, the exact number is not on record here.

On to `O=C1CC(c2ccccc2)=Nc2ccccc2N1` [Compound 18, 4-Phenyl-1H-1,5-benzodiazepin-2(3H)-one], for which the half-maximal inhibitory concentration (IC50) in the data set on HepG2 cells was 224 ± 35 µM. Besides, the Caspase-3 activity reduction result in data set [1] was “reduced the levels of activated caspase 3”. Moreover, the solubility in data set [2] was less than 100 µM.
